Assay results as given in US20220380476A1, “Use of an anti-CCR7 antibody in combination therapies with a BTK inhibitor and/or BCL2- inhibitor for treating hematological malignancies” (Catapult Therapeutics B.V., priority 2019, published 2022).
Entries after “also recorded” stand apart in the source; their conditions may differ.

Experiments:
[1] = system: primary cells from patients with B-cell malignancies; settings: in vitro; cited from earlier work
MCL-1 = MCL-1 (Homo sapiens, UniProt Q07820); settings: cited from earlier work
Sequence of MCL-1 (Q07820 whole entry, species assumed): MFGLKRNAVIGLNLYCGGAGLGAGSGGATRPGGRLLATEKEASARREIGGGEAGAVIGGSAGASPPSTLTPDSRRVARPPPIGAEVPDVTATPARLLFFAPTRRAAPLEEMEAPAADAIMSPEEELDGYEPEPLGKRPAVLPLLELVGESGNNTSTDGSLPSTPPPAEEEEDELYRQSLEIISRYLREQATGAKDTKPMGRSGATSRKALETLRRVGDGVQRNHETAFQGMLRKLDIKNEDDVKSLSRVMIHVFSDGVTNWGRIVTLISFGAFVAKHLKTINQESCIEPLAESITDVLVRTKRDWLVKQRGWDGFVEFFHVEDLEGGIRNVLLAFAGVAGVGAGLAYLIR

[2] = system: lymphoma and other blood cancers; settings: cited from earlier work
Bcl-2 = Bcl-2 (Homo sapiens, UniProt P10415); settings: cited from earlier work
Sequence of Bcl-2 (P10415 whole entry): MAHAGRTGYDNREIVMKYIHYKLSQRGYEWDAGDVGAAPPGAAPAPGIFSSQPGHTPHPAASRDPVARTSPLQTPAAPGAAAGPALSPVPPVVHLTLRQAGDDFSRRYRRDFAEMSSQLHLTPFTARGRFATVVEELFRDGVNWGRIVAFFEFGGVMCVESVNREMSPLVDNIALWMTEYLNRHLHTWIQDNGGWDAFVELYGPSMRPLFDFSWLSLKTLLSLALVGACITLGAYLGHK

CCR7 = experiment: Flow cytometry of surface CCR7 expression in CLL cells from treated patients; format: in vivo, human; settings: for change in surface CCR7 expression compared with naïve patients: CLL patients on treatment
Protocol: Systems). […] Data acquisition was performed on a BD FACSCanto™ 11 Flow Cytometer (BD Biosciences).

BCL-XL and BCL-W = settings: cited from earlier work
[3] = system: patients with chronic lymphocytic leukemia (CLL); settings: cited from earlier work
CD20 (human) = CD20 (human) (UniProt P11836)
Sequence of CD20 (human) (P11836 whole entry): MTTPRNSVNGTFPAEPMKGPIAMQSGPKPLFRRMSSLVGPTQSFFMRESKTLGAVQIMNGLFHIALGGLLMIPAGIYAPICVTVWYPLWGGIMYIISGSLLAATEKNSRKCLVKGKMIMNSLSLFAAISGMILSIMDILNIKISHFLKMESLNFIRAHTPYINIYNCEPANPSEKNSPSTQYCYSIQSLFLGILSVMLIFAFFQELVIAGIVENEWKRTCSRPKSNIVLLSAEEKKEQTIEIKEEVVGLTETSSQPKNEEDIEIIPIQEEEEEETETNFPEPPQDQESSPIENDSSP

Bcl-2 mRNA = settings: cited from earlier work
[4] = biological target: T1, human CC motif receptor 7 (CCR7) (human, UniProt P32248 25-378); experiment: cell-based or functional assay
T1 sequence (looked up): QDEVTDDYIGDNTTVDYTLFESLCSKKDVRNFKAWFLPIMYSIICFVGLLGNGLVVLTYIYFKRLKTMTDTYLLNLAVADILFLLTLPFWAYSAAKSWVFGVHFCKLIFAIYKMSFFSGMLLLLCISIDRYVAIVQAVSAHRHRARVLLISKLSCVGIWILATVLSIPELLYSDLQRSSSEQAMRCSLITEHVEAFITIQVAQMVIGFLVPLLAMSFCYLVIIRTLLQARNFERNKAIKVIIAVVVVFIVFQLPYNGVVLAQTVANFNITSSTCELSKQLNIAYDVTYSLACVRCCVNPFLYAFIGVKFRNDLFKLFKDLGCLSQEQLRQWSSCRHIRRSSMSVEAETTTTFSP

[5] = biological target: T1, human CC motif receptor 7 (CCR7); experiment: cell-based or functional assay; remark: listed apart in the source
[6] = biological target: T1, human CC motif receptor 7 (CCR7); experiment: cell-based or functional assay; remark: listed apart in the source
[7] = biological target: T1, human CC motif receptor 7 (CCR7); experiment: cell-based or functional assay; remark: listed apart in the source
[8] = biological target: T1, human CC motif receptor 7 (CCR7); experiment: cell-based or functional assay; remark: listed apart in the source
[9] = biological target: T1, human CC motif receptor 7 (CCR7); experiment: cell-based or functional assay; remark: listed apart in the source

CN(C)CC[C@H](CSc1ccccc1)Nc1ccc(S(=O)(=O)NC(=O)c2ccc(N3CCN(Cc4ccccc4-c4ccc(Cl)cc4)CC3)cc2)cc1[N+](=O)[O-] [ABT-737, 4-[4-[(4′-chloro[1,T-biphenyl]-2-yl)methyl]-1-piperazinyl]A/-[[4-[[(1R)-3-(dimethylamino)-1-[(phenylthio)methyl]propyl]amino]-3-nitrophenyl]sulfonyl]benzamide]
sensitivity of primary cells [1]: sensitive
activity against MCL-1 (MCL-1): not A1 or Mcl-1
survival ([2]; animal models): improves survival
tumor regression ([2]; animal models): causes tumor regression
efficacy in patient xenografts ([2]; preclinical studies utilizing patient xenografts): shows efficacy
affinity for Bcl-2, Bcl-xL and Bcl-w compared with previous Bcl-2 inhibitors (Bcl-2): higher affinity

CC#CC(=O)N1CCC[C@H]1c1nc(-c2ccc(C(=O)Nc3ccccn3)cc2)c2c(N)nccn12 [acalabrutinib]
change in surface CCR7 expression compared with naïve patients (CCR7): unchanged; also recorded: no changes

CC1(C)CCC(c2ccc(Cl)cc2)=C(CN2CCN(c3ccc(C(=O)NS(=O)(=O)c4ccc(N[C@H](CCN5CCOCC5)CSc5ccccc5)c(S(=O)(=O)C(F)(F)F)c4)cc3)CC2)C1 [navitoclax, 4-(4-{[2-(4-Chlorophenyl)-5,5-dimethyl-1-cyclohexen-1-yl]methyl}-1-piperazinyl)-N-[(4-{[(2R)-4-(4-morpholinyl)-1-(phenylsulfanyl)-2-butanyl]amino}-3-[(trifluoromethyl)sulfonyl]phenyl)sulfonyl]-benzamide]
activity against MCL-1 (MCL-1): not A1 or Mcl-1
affinity for Bcl-2, Bcl-xL and Bcl-w compared with previous Bcl-2 inhibitors (Bcl-2): higher affinity

CC1(C)CCC(CN2CCN(c3ccc(C(=O)NS(=O)(=O)c4ccc(NCC5CCOCC5)c([N+](=O)[O-])c4)c(Oc4cnc5[nH]ccc5c4)c3)CC2)=C(c2ccc(Cl)cc2)C1 [venetoclax]
activity against MCL-1 (MCL-1): no activity
binding affinity to BCL-XL and BCL-W (BCL-XL and BCL-W): significantly lower affinity
inhibition of Bcl-xL or Bcl-w (BCL-XL and BCL-W): not Bcl-xL or Bcl-w
clinical response [3]: Good responses
thrombocytopenia [3]: not observed
percentage of CCR7-expressing CLL cells (CCR7; CLL cells from patients on treatment): approximately 100%
change in surface CCR7 expression compared with naïve patients (CCR7): maintained in essentially all CLL cells

C=CC(=O)N1CCC([C@@H]2CCNc3c(C(N)=O)c(-c4ccc(Oc5ccccc5)cc4)nn32)CC1 [zanabrutinib]
change in surface CCR7 expression compared with naïve patients (CCR7): unchanged; also recorded: no changes

RTX (antibody)
EC50 (read off the curve); ADCC on CLL cells of a patient receiving venetoclax (CD20 (human)): 2 µg/mL

oblimersen
cell proliferation (Bcl-2 mRNA): inhibited

B1: CAP-100 (antibody, human IgG1, V domains shown)
VH: EVQLLESGGGFVKPGGSLKLSCVVSGLTFRDFAMSWVRQTPEKRLVWVATISSGGFYTYYPDSVKGRFTISRDNVRNILYLQMSSLRSEDTAVYYCVRRAYRYDGTGDYSALDYWGTGTTVTVSS
VL: DIQMTQSPSSLSASVGDRVTITCRASQDIGPSLNWYQQKPGKAPKRLIYATSNLDSGVPSRFSGSGSGTDFTLTISSLQPEDFATYYCLQFASSPLTFGQGTKVEIK
IC50 (read off the curve); CCL19-induced migration of CLL cells of an ibrutinib patient [4]: ~0.2 µg/mL
IC50 (read off the curve); CCL21-induced migration of CLL cells of a patient receiving venetoclax [5]: ~0.1 µg/mL
EC50 (read off the curve); ADCC on CLL cells of a patient receiving ibrutinib [6]: ~1 µg/mL
EC50 (read off the curve); ADCC on CLL cells of a patient receiving zanabrutinib [7]: ~0.8 µg/mL
EC50 (read off the curve); ADCC on CLL cells of a patient receiving venetoclax [8]: ~0.2 µg/mL
EC50 (read off the curve); ADCC on CLL cells of a patient with disease relapsed/refractory to ibrutinib [9]: ~1 µg/mL
